Results published in patent publication US20240140957A1, “BRIDGED COMPOUNDS AS KRAS G12D INHIBITOR AND DEGRADER AND THE USE THEREOF” (BeiGene Switzerland GmbH, priority 2021, published 2024).

Target: GDP-loaded KRAS G12D (Homo sapiens, UniProt P01116, G12D)
Test: KRAS G12D Probe Displacement Assay
Format: binding
Conditions: KRAS G12D 0.5 nM, biotinylated probe 2 4 nM; Table 6 letters; read-out: KRAS G12D Probe Displacement Assay IC50 (class)

Sequence of GDP-loaded KRAS G12D (P01116 1-188 isoform P01116-2 G12D): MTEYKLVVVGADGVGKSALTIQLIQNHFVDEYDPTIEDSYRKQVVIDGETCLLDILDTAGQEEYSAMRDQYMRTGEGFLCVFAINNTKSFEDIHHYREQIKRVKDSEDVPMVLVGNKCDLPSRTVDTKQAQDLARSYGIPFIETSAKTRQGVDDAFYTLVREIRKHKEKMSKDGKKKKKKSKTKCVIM

Row | Compound | IC50 [nM]
1 | Nc1nc2c(-c3c(C(F)(F)F)cc4c(N5CC6CCC(C5)N6)nc(OCC5CC(O)C5)nc4c3F)ccc(F)c2s1 (stereo not drawn) [Example E173] | < 50
2 | CC12CC(COc3nc(N4CC5CCC(C4)N5)c4cc(C(F)(F)F)c(-c5ccc(F)c6sc(N)nc56)c(F)c4n3)(CO1)C2 [Example E174, 4-(4-(3,8-diazabicyclo[3.2.1]octan-3-yl)-8-fluoro-2-((1-methyl-2-oxabicyclo[2.1.1]hexan-4-yl)methoxy)-6-(trifluoromethyl)quinazolin-7-yl)-7-fluorobenzo[d] thiazol-2-amine] | < 50
3 | CS(=O)(=O)N1CC(COc2nc(N3CC4CCC(C3)N4)c3cc(C(F)(F)F)c(-c4ccc(F)c5sc(N)nc45)c(F)c3n2)C1 [Example E175, 4-(4-(3,8-diazabicyclo[3.2.1]octan-3-yl)-8-fluoro-2-((1-(methylsulfonyl)azetidin-3-yl)methoxy)-6-(trifluoromethyl)quinazolin-7-yl)-7-fluorobenzo[d]thiazol-2-amine] | < 50
4 | COC1(COc2nc(N3CC4CCC(C3)N4)c3cc(C(F)(F)F)c(-c4ccc(F)c5sc(N)nc45)c(F)c3n2)COC1 [Example E176, 4-(4-(3,8-diazabicyclo[3.2.1]octan-3-yl)-8-fluoro-2-((3-methoxyoxetan-3-yl)methoxy)-6-(trifluoromethyl)quinazolin-7-yl)-7-fluorobenzo[d] thiazol-2-amine] | < 50
5 | Nc1nc2c(-c3c(C(F)(F)F)cc4c(N5CC6CCC(C5)N6)nc(OC5CC(O)C5)nc4c3F)ccc(F)c2s1 (stereo not drawn) [Example E177, 3-((7-(2-amino-7-fluorobenzo[d]thiazol-4-yl)-4-(3,8-diazabicyclo [3.2.1]octan-3-yl)-8-fluoro-6-(trifluoromethyl)quinazolin-2-yl)oxy)cyclobutan-1-ol] | < 50
6 | CN1CCCC(C#N)(COc2nc(N3CC4CCC(C3)N4)c3cc(Cl)c(-c4ccc(F)c5sc(N)nc45)c(F)c3n2)C1 (stereo not drawn) [Example E178, 3-(((7-(2-amino-7-fluorobenzo[d]thiazol-4-yl)-4-(3,8-diazabicyclo [3.2.1]octan-3-yl)-6-chloro-8-fluoroquinazolin-2-yl)oxy)methyl)-1-methylpiperidine-3-carbonitrile] | < 50
7 | Nc1nc2c(-c3c(C(F)(F)F)cc4c(N5CC6CCC(C5)N6)nc(OC[C@H]5CNC(=O)CO5)nc4c3F)ccc(F)c2s1 [Example E179, (6R)-6-(((7-(2-amino-7-fluorobenzo[d]thiazol-4-yl)-4-(3,8-diazabicyclo[3.2.1]octan-3-yl)-8-fluoro-6-(trifluoromethyl)quinazolin-2-yl)oxy)methyl)morpholin-3-one] | < 50
8 | CC(F)(F)C1(COc2nc(N3CC4CCC(C3)N4)c3cc(C(F)(F)F)c(-c4ccc(F)c5sc(N)nc45)c(F)c3n2)COC1 [Example E180, 4-(4-(3,8-diazabicyclo[3.2.1]octan-3-yl)-2-((3-(1,1-difluoroethyl)oxetan-3-yl)methoxy)-8-fluoro-6-(trifluoromethyl)quinazolin-7-yl)-7-fluorobenzo[d]thiazol-2-amine] | < 50
9 | CC1(COc2nc(N3CC4CCC(C3)N4)c3cc(C(F)(F)F)c(-c4ccc(F)c5sc(N)nc45)c(F)c3n2)CCOC1 (stereo not drawn) [Example E181, 4-(4-(3,8-diazabicyclo[3.2.1]octan-3-yl)-8-fluoro-2-((3-methyltetrahydrofuran-3-yl)methoxy)-6-(trifluoromethyl)quinazolin-7-yl)-7-fluorobenzo[d]thiazol-2-amine] | < 50
10 | CC1(COc2nc(N3CC4CCC(C3)N4)c3cc(C(F)(F)F)c(-c4ccc(F)c5sc(N)nc45)c(F)c3n2)CCOCC1 [Example E182, 4-(4-(3,8-diazabicyclo[3.2.1]octan-3-yl)-8-fluoro-2-((4-methyltetra hydro-2H-pyran-4-yl)methoxy)-6-(trifluoromethyl)quinazolin-7-yl)-7-fluorobenzo[d]thiazol-2-amine] | < 50
11 | CC1(COc2nc(N3CC4CCC(C3)N4)c3cc(C(F)(F)F)c(-c4ccc(F)c5sc(N)nc45)c(F)c3n2)CCCOC1 (stereo not drawn) [Example E183, 4-(4-(3,8-diazabicyclo[3.2.1]octan-3-yl)-8-fluoro-2-((3-methyltetra hydro-2H-pyran-3-yl)methoxy)-6-(trifluoromethyl)quinazolin-7-yl)-7-fluorobenzo[d]thiazol-2-amine] | < 50
12 | Nc1nc2c(-c3c(C(F)(F)F)cc4c(N5CC6CCC(C5)N6)nc(OCCc5cccnc5)nc4c3F)ccc(F)c2s1 [Example E184, 4-(4-(3,8-diazabicyclo[3.2.1]octan-3-yl)-8-fluoro-2-(2-(pyridin-3-yl)ethoxy)-6-(trifluoromethyl)quinazolin-7-yl)-7-fluorobenzo [d]thiazol-2-amine] | < 50
13 | Nc1nc2c(-c3c(C(F)(F)F)cc4c(N5CC6CCC(C5)N6)nc(OCCn5cccn5)nc4c3F)ccc(F)c2s1 [Example E185, 4-(2-(2-(1H-pyrazol-1-yl)ethoxy)-4-(3,8-diazabicyclo[3.2.1]octan-3-yl)-8-fluoro-6-(trifluoromethyl)quinazolin-7-yl)-7-fluorobenzo[d]thiazol-2-amine] | < 50
14 | N#CC12CC(COc3nc(N4CC5CCC(C4)N5)c4cc(C(F)(F)F)c(-c5ccc(F)c6sc(N)nc56)c(F)c4n3)(C1)C2 [Example E186, 3-(((7-(2-amino-7-fluorobenzo[d]thiazol-4-yl)-4-(3,8-diazabicyclo [3.2.1]octan-3-yl)-8-fluoro-6-(trifluoromethyl)quinazolin-2-yl)oxy)methyl)bicyclo[1.1.1] pentane-1-carbonitrile] | < 50
15 | Nc1nc2c(-c3c(C(F)(F)F)cc4c(N5CC6CCC(C5)N6)nc(OCC5(CO)CCOCC5)nc4c3F)ccc(F)c2s1 [Example E187, (4-(((7-(2-amino-7-fluorobenzo[d]thiazol-4-yl)-4-(3,8-diazabicyclo[3.2.1]octan-3-yl)-8-fluoro-6-(trifluoromethyl)quinazolin-2-yl)oxy)methyl)tetrahydro-2H-pyran-4-yl)methanol] | < 50
16 | N#Cc1cncc(CCOc2nc(N3CC4CCC(C3)N4)c3cc(C(F)(F)F)c(-c4ccc(F)c5sc(N)nc45)c(F)c3n2)c1 [Example E188, 5-(2-((7-(2-amino-7-fluorobenzo[d]thiazol-4-yl)-4-(3,8-diazabicyclo[3.2.1]octan-3-yl)-8-fluoro-6-(trifluoromethyl)quinazolin-2-yl)oxy)ethyl) nicotinonitrile] | < 50
17 | Nc1nc2c(-c3c(C(F)(F)F)cc4c(N5CC6CCC(C5)N6)nc(OCCC5COC5)nc4c3F)ccc(F)c2s1 [Example E189, 4-(4-(3,8-diazabicyclo[3.2.1]octan-3-yl)-8-fluoro-2-(2-(oxetan-3-yl)ethoxy)-6-(trifluoromethyl)quinazolin-7-yl)-7-fluorobenzo[d]thiazol-2-amine] | < 50
18 | Nc1nc2c(-c3c(C(F)(F)F)cc4c(N5CC6CCC(C5)N6)nc(OCC5(CO)CCCC5)nc4c3F)ccc(F)c2s1 [Example E190, (1-(((7-(2-amino-7-fluorobenzo[d]thiazol-4-yl)-4-(3,8-diazabicyclo[3.2.1]octan-3-yl)-8-fluoro-6-(trifluoromethyl)quinazolin-2-yl)oxy)methyl)cyclopentyl)methanol] | < 50
